What all share (assay): microbe, parasite or virus in culture
Assay type in all cases: cell-based

One experiment deals with Candida friedrichii. Here is the method:
(§1) Furthermore, compound 1 was evaluated for its antimicrobial activity against five bacterial isolates; S. aureus (CCM3824), B. subtilis (CCM1999), S. sanguinis (CCM4047), P. aeruginosa (CCM1959), E. coli (CCM2024), and eight fungal isolates; C. friedrichii (BCC020_2879), A. fumigatus (BCC020_2845), F. oxysporum (BCC020_2866), T. harzianum (BCC020_0606), B. sorokiniana (BCC020_1571), M. cucumerina (BCC020_2872), C. globosum (BCC020_2527), and A. alternata (BCC020_0609) using broth two-fold microdilution method following the standard protocol. Briefly, for broth microdilution method, the compounds were serially diluted at varying concentrations between 300 and 0.0732 µg/mL in Mueller Hinton broth (for bacteria) and Muller Hinton broth with 2% glucose (for fungi) in 96-well plates. Culture broth (0.1 mL) was added to each well containing the compound. Plates were incubated aerobically at 37 °C for 16 h (bacteria) and 30 °C for 48 h (for fungi). Negative controls were prepared separately with respective organisms in the same culture media with methanol (the dissolving solvent). Positive controls were also prepared separately with respective organisms. Erythromycin (32–0.0625 µg/mL) was used as positive control for S. aureus and S. sanguinis, gentamycin (32–0.0625 µg/mL) was used as positive control for Bacillus subtilis, E. coli, and P. aeruginosa, whereas fluconazole (32–0.0625 µg/mL) was used as positive control for all the fungal isolates. After incubation, the well with the least concentration of the compound showing any inhibition in the growth was taken as the MIC value for the respective organisms. MIC95 was determined as the concentration required to inhibit or kill 95% of bacterial isolates spectroscopically at 600 nm. Minimum fungicidal concentration (MFCs) were determined after 48 h incubation by removing 10 µL of the contents from wells showing no visible growth and spreading them on to Sabouraud dextrose agar plates. The plates were then incubated for 72 h and MFCs were determined as the concentrations which killed 95–100% of the inoculum. All the experiments were done in triplicate.

Another experiment relates to Fusarium oxysporum. The procedure:
as §1

A further experiment has as its system Alternaria alternata. Here is the method: as §1
For the next experiment, the system named is Chaetomium globosum. Here is the method: as §1

Molecules are shown by their SMILES. Converted amounts (≈) assume the structure as drawn. *1 amine or outer side, *2 acyl side, *3 side chain or, on linkers, in order; H or OH if unused. Where a SMILES comes first, the peptide text is derived from it. [ ]: non-standard residue; d: D form. X1 = CCCCCC(O)CC(N[*:1])C(O)C(=O)[*:2]; d(aIle) = CC[C@H](C)[C@@H](N)C(=O)O; Dhb = C/C=C(\N)C(=O)O

As to `C/C=C1\NC(=O)[C@H](CO)NC(=O)[C@@H]([C@@H](C)CC)NC(=O)[C@H](Cc2ccccc2)NC(=O)[C@@H]2CCCN2C(=O)CNC(=O)[C@@H](CCC(N)=O)NC(=O)C(O)C(CC(O)CCCCC)NC(=O)[C@@H]2CCCN2C(=O)[C@@H]([C@@H](C)CC)NC(=O)[C@H](CO)NC1=O` (some centres unmarked) [compound 2, muscotoxin A] (cyclo([Dhb]S[d(aIle)]P[X1][dQ]GPF[d(aIle)]S)), the MIC was 75 µg/mL (≈ 61.9 µM) with Candida friedrichii (C. friedrichii BCC020_2879, Muller Hinton broth with 2% glucose, 300–0.0732 µg/mL (control 32–0.0625), 30 °C 48 h, triplicate, least concentration showing any inhibition); 75 µg/mL (≈ 61.9 µM) against Fusarium oxysporum (F. oxysporum BCC020_2866, Muller Hinton broth with 2% glucose, 300–0.0732 µg/mL (control 32–0.0625), 30 °C 48 h, triplicate, least concentration showing any inhibition); 0.58 µg/mL (≈ 0.479 µM) against Alternaria alternata (A. alternata BCC020_0609, Muller Hinton broth with 2% glucose, 300–0.0732 µg/mL (control 32–0.0625), 30 °C 48 h, triplicate, least concentration showing any inhibition); 18.75 µg/mL (≈ 15.5 µM) with Chaetomium globosum (C. globosum BCC020_2527, Muller Hinton broth with 2% glucose, 300–0.0732 µg/mL (control 32–0.0625), 30 °C 48 h, triplicate, least concentration showing any inhibition). In addition, the MFC with Candida friedrichii (C. friedrichii, 10 µL from wells without visible growth after 48 h spread on Sabouraud dextrose agar, 72 h, kills 95–100% of the inoculum) is under 300 µg/mL; against Fusarium oxysporum (F. oxysporum, 10 µL from wells without visible growth after 48 h spread on Sabouraud dextrose agar, 72 h, kills 95–100% of the inoculum), under 300 µg/mL; in the experiment with Alternaria alternata (A. alternata, 10 µL from wells without visible growth after 48 h spread on Sabouraud dextrose agar, 72 h, kills 95–100% of the inoculum), 75 µg/mL (≈ 61.9 µM); against Chaetomium globosum (C. globosum, 10 µL from wells without visible growth after 48 h spread on Sabouraud dextrose agar, 72 h, kills 95–100% of the inoculum) it was under 300 µg/mL.

These data come from article PMC6222847, “Application of HPCCC Combined with Polymeric Resins and HPLC for the Separation of Cyclic Lipopeptides Muscotoxins A–C and Their Antimicrobial Activity” (Molecules : A Journal of Synthetic Chemistry and Natural …, 2018).
